Measurements taken from US9708304B2, “Salt polymorph of thioxanthene-9-ylidene-1-methyl piperidine acid addition salts as antimigraine compounds” (BIOFRONTERA BIOSCIENCE GMBH, priority 2013, dated 2017).
Where two headings read alike, the source gives them in different places.

Experiment: Comparison of solubilities of sample Id 1 and Id 2 in three different solvents
Type: physicochemical
Description: It has also been confirmed that sample 2 has a higher solubility than the starting material. The starting HCl salt (sample Id 1) and the salt received from the low temperature evaporation (sample Id 2) were dissolved in 3 solvents with different capacities in solubility, namely methanol, 2-propanol and 96% ethanol (see Table 3 below). The solubility of sample Id 1 and sample Id 2 is shown in the rightmost column of Table 3 in mg/ml.

[1] = solvent 2-Propanol, hydrochloride
[2] = solvent Ethanol 96%, hydrochloride
[3] = solvent Methanol, hydrochloride

Row | SMILES | Increase in solubility in comparison to the starting material (sample Id 1) (2-propanol) | solubility (2-propanol, organic solvent or mixture, thermodynamic from solid, solvent 2-Propanol, read-out: Solubility) | Increase in solubility in comparison to the starting material (sample Id 1) (96% ethanol) | Solubility compared with starting material (methanol, 2-propanol and 96% ethanol) | Weight-% (dissolved salt in solution) [1] | Weight-% (dissolved salt in solution) [2] | solubility [2] | Weight-% (dissolved salt in solution) [3] | solubility [3] | solubility (96% ethanol, organic solvent or mixture, thermodynamic from solid, solvent Ethanol 96%, read-out: Solubility) | solubility (methanol, organic solvent or mixture, thermodynamic from solid, solvent Methanol, read-out: Solubility) | solubility [1]
1 | CCOc1ccc2c(c1)Sc1cccc(OC)c1C2=C1CCN(C)CC1.Cl [Low. temp. evap. MeOH, 4-(6-ethoxy-1-methoxy-thioxanthene-9-ylidene)-1-methyl piperidine hydrochloride] | about 25% | 5 mg/mL | about 9% | enhanced solubility in all three solvents tested | 0.38% | 4.70% | 62 mg/mL | 12.92% | 171 mg/mL |  |  | 
2 | CCOc1ccc2c(c1)Sc1cccc(OC)c1C2=C1CCN(C)CC1.Cl [Starting Material, 4-(6-ethoxy-1-methoxy-thioxanthene-9-ylidene)-1-methyl piperidine hydrochloride] |  |  |  |  | 0.27% | 4.56% |  | 12.50% |  | 57 mg/mL | 156 mg/mL | 4 mg/mL
